# In patent US20180149639A1, “MODELING NEURAL NETWORK DYSFUNCTION” (priority 2014, published 2018):
# “Also recorded” adds a separate entry of the source.
# Columns and labels:
# [1] = test system: Shank3 KO cortical networks; assay: MEA recordings of Shank3 KO cortical cultures (spike rate, NAP/NIP duration from ASDR plot); format: cell-based, mice; settings: for NIP duration relative to WT level: 100 nM
# Method: (§1) Primary dissociated cortical neurons were prepared from postnatal day 0 wild type and Shank3 KO mice (Peca et al., 2011) from littermates using standard protocols as described before (Ramamoorthi et al., 2011). For micro-electrode array recordings, dissociated neurons were plated onto substrate embedded electrodes pre-coated with polyethyleneimine (PEI) (Sigma-Aldrich, 0.1%) plus laminin (Life Technologies, 20 μg/ml) at a density of 3×10^3 cells/mm^2. For biochemical experiments, 3×10^5 cells were plated onto 1 well of the 24-well plate pre-coated with 20 μg/ml Poly-D-lysine (PDL, Sigma-Aldrich) and 4 μg/ml laminin (Life Technologies). The cultures were treated with AraC (Sigma-Aldrich, 1 μg/ml) at day 5 in vitro, and maintained up to 21 days after plating.
# (§2) The electrical activity of cultured neurons was recorded using MEA2100-Systems (Multichannel Systems) with integrated amplifier. Each MEA dish (6-well MEA 200/30 iR-Ti-rcr, Multichannel Systems) contains six wells, with 9 microelectrodes (TiN, 30 μm diameter) arranged over a 3×3 square grid at 200 μm inter-electrode distance in each MEA well (FIG. 1C). Recordings started 10 minutes after the MEA plates were placed to the headstage, which was set to 35° C., and the culture was supplied with continuous perfusion of 5% carbon dioxide balanced air (Airgas) throughout recording. For all time points earlier than 21 days in vitro (DIV21), MEA recordings lasted 15 minutes. At DIV21, MEA recordings lasted 30 minutes. All MEA recordings were performed in culture medium without perfusion. The electric signals were collected at 10 kHz with MCRack (Multichannel Systems; Version 4.4.2) and analyzed offline.
# (§3) The software MCRack was used for spike detection. Raw MEA data was first high-pass filtered at 200 Hz to remove the low-frequency local field potentials. […] The average detection threshold is around 16 μV. Spike sorting was not performed, thus multiunit activity may contribute to the spikes detected from one electrode. Timestamps of spikes were stored and used for further analysis.
# (§4) ASDR plot was generated using the method modified from Wagenaar et al. (2008) by summing the number of spikes detected per 200 ms from all electrodes in each well and plotted in time series. Clampfit 10.2 (Molecular Devices) was used for ASDR waveform analysis. 5% of individual ASDR's maximum peak value was calculated and set as the detecting threshold for identifying ASDR spike. […] ASDR spikes with ISIs below 10 seconds were grouped together and defined as network active period (NAP).
# (§5) All drugs were dissolved in DMSO to make stock solutions before applying to neurons in culture media for pharmacological studies. Picrotoxin (PTX, stock solution of 100 mM) for blocking GABAA receptors (Tocris), Clonazepam (stock solution of 30 mM) as GABAA receptor positive modulator (Sigma), NBQX (stock solution of 10 mM) for blocking AMPA receptor (Abcam), and CX546 (stock solution of 100 mM) as AMPA receptor potentiator (Tocris) were used in doses as described herein. The maximum concentration of DMSO in the culture media with drug application was 0.08% volume.
# WT cortical networks = assay: MEA recordings of WT cortical cultures (spike rate, NAP/NIP duration from ASDR plot); format: cell-based, mice
# Method: as §1, §2, §3, §4, §5
molecule,measurement,setting,value
"O=C1CN=C(c2ccccc2Cl)c2cc([N+](=O)[O-])ccc2N1 [CLP, Clonazepam]","NIP duration, dose dependence",[1]; Shank3 KO networks DIV21,dose dependently increased
same,NIP duration relative to WT level,[1]; Shank3 KO networks DIV21,normalized the shortened NIP in the Shank3 KO network to the level of WT; also recorded: normalized reduced NIP duration
same,NIP duration relative to WT level,"[1]; Shank3 KO networks DIV21, listed as clonazepam",normalized
same,"NIP duration, dose dependence",WT cortical networks; WT cortical networks DIV21,dose dependently elongated
same,"NIP duration, % longer","WT cortical networks; WT cortical networks DIV21, 100 nM, vs before treatment (basal)",42±14%
O=C(c1ccc2c(c1)OCCO2)N1CCCCC1 [CX546],mean spike rate (reduced-firing) in spontaneous network,"[1]; Shank3 KO cultures DIV21, 30 μM",rescued the reduced-firing; also recorded: rescued the hypoactive network
same,mean spike rate (reduced-firing) in PTX-treated network,"[1]; Shank3 KO cultures DIV21 with 50 μM PTX, 30 μM",effectively rescued the reduced-firing
same,duration of NAP,[1]; Shank3 KO networks DIV21,did not significantly change
same,duration of NIP,"[1]; Shank3 KO networks DIV21, CX546 treatment",did not significantly change; also recorded: did not recover the network defect
same,NIP duration (decreased to),"WT cortical networks; WT cortical networks DIV21, 30 μM",58±11%
same,length of NAP,"WT cortical networks; WT cortical networks DIV21, up to 30 μM",remained unchanged
NS(=O)(=O)c1cccc2c1c([N+](=O)[O-])cc1nc(O)c(O)nc12 [NBQX],NIP duration (enhanced by),"WT cortical networks; WT cortical networks DIV21, 1 μM",560±85%
Picrotoxin [PTX],mean spike rate,"[1]; Shank3 KO cultures DIV21, 50 μM, vs before treatment",significantly increased
same,NIP duration compared to basal (reduced to),"WT cortical networks; WT cortical networks DIV21, 0.2 μM",51±6%
same,NIP duration compared to basal (reduced to),"WT cortical networks; WT cortical networks DIV21, 0.5 μM",44±6%
same,length of NAP,"WT cortical networks; WT cortical networks DIV21, up to 0.5 μM",remained unchanged
same,mean spike rate,"WT cortical networks; WT cultures DIV21, 50 μM, vs before treatment",significantly increased
